Experimental data from the OligoGym collection.
HELM strings list units from the 5' end as sugar, base in round brackets, then linkage (d deoxyribose, r ribose, m 2'-O-methyl, p phosphodiester). Strings are as the collection lists them; they lack the last nucleoside at the 3' end of the tested compound. [moe] = 2'-O-(2-methoxyethyl) (MOE); [sp] = phosphorothioate linkage; [m5C] = 5-methylcytosine

Biological target: SCN2A
Experiment: mouse, dose not given
Conditions: ASO

| Substance | 3 h FOB score |
| --- | --- |
| RNA1{[moe](A)[sp].[moe](T)p.[moe](T)p.[moe](T)p.[moe]([m5C])p.d(T)[sp].d(A)[sp].d(T)[sp].d(A)[sp].d(A)[sp].d([m5C])[sp].d(T)[sp].d([m5C])[sp].d(A)[sp].d(G)[sp].[moe]([m5C])p.[moe](A)p.[moe](A)[sp].[moe]([m5C])}$$$$ (last 3' nucleoside missing) | 0 score 0-7 |
| RNA1{[moe](A)[sp].[moe](T)p.[moe](T)p.[moe](T)p.d([m5C])[sp].d(T)[sp].d(A)[sp].d(T)[sp].d(A)[sp].d(A)[sp].d([m5C])[sp].d(T)[sp].d([m5C])[sp].d(A)[sp].[moe](G)p.[moe]([m5C])p.[moe](A)p.[moe](A)[sp].[moe]([m5C])}$$$$ (last 3' nucleoside missing) | 0 score 0-7 |
| RNA1{[moe](A)[sp].[moe](T)p.[moe](T)p.[moe]([m5C])p.[moe](T)p.[moe](A)p.d(T)[sp].d(T)[sp].d(T)[sp].d(T)[sp].d(A)[sp].d(T)[sp].d(A)[sp].d(A)[sp].d(A)[sp].d(T)[sp].[moe](G)p.[moe]([m5C])[sp].[moe]([m5C])}$$$$ (last 3' nucleoside missing) | 2 score 0-7 |
| RNA1{[moe](A)[sp].[moe](T)p.[moe](T)p.[moe]([m5C])p.[moe](T)p.d(A)[sp].d(T)[sp].d(T)[sp].d(T)[sp].d(T)[sp].d(A)[sp].d(T)[sp].d(A)[sp].d(A)[sp].d(A)[sp].[moe](T)p.[moe](G)p.[moe]([m5C])[sp].[moe]([m5C])}$$$$ (last 3' nucleoside missing) | 1 score 0-7 |
| RNA1{[moe](A)[sp].[moe](T)p.[moe](T)p.[moe]([m5C])p.[moe](T)p.d(G)[sp].d([m5C])[sp].d(A)[sp].d(T)[sp].d(G)[sp].d(T)[sp].d(A)[sp].d(A)[sp].d([m5C])[sp].d([m5C])[sp].[moe](T)p.[moe](T)p.[moe](T)[sp].[moe](A)}$$$$ (last 3' nucleoside missing) | 3 score 0-7 |
| RNA1{[moe](A)[sp].[moe](T)p.[moe](T)p.[moe]([m5C])p.d(T)[sp].d(A)[sp].d(T)[sp].d(T)[sp].d(T)[sp].d(T)[sp].d(A)[sp].d(T)[sp].d(A)[sp].d(A)[sp].[moe](A)p.[moe](T)p.[moe](G)p.[moe]([m5C])[sp].[moe]([m5C])}$$$$ (last 3' nucleoside missing) | 2.67 score 0-7 |
| RNA1{[moe](A)[sp].[moe](T)p.[moe]([m5C])p.[moe](A)p.[moe](T)p.[moe](G)p.d([m5C])[sp].d(A)[sp].d(T)[sp].d(A)[sp].d(A)[sp].d(T)[sp].d([m5C])[sp].d([m5C])[sp].d([m5C])[sp].d(A)[sp].[moe](T)p.[moe](T)[sp].[moe](A)}$$$$ (last 3' nucleoside missing) | 0 score 0-7 |
| RNA1{[moe](A)[sp].[moe](T)p.[moe]([m5C])p.[moe](A)p.[moe](T)p.d(G)[sp].d([m5C])[sp].d(A)[sp].d(T)[sp].d(A)[sp].d(A)[sp].d(T)[sp].d([m5C])[sp].d([m5C])[sp].d([m5C])[sp].[moe](A)p.[moe](T)p.[moe](T)[sp].[moe](A)}$$$$ (last 3' nucleoside missing) | 0 score 0-7 |
| RNA1{[moe](A)[sp].[moe](T)p.[moe]([m5C])p.[moe](A)p.[moe]([m5C])p.[moe](T)p.d(T)[sp].d(T)[sp].d([m5C])[sp].d(A)[sp].d(T)[sp].d([m5C])[sp].d([m5C])[sp].d(A)[sp].d([m5C])[sp].d(G)[sp].[moe](A)p.[moe]([m5C])[sp].[moe](A)}$$$$ (last 3' nucleoside missing) | 0 score 0-7 |
| RNA1{[moe](A)[sp].[moe](T)p.[moe]([m5C])p.[moe](A)p.[moe]([m5C])p.d(T)[sp].d(T)[sp].d(T)[sp].d([m5C])[sp].d(A)[sp].d(T)[sp].d([m5C])[sp].d([m5C])[sp].d(A)[sp].d([m5C])[sp].[moe](G)p.[moe](A)p.[moe]([m5C])[sp].[moe](A)}$$$$ (last 3' nucleoside missing) | 1 score 0-7 |
| RNA1{[moe](A)[sp].[moe](T)p.[moe]([m5C])p.[moe](A)p.d(T)[sp].d(G)[sp].d([m5C])[sp].d(A)[sp].d(T)[sp].d(A)[sp].d(A)[sp].d(T)[sp].d([m5C])[sp].d([m5C])[sp].[moe]([m5C])p.[moe](A)p.[moe](T)p.[moe](T)[sp].[moe](A)}$$$$ (last 3' nucleoside missing) | 1 score 0-7 |
| RNA1{[moe](A)[sp].[moe](T)p.[moe]([m5C])p.[moe](A)p.d([m5C])[sp].d(T)[sp].d(T)[sp].d(T)[sp].d([m5C])[sp].d(A)[sp].d(T)[sp].d([m5C])[sp].d([m5C])[sp].d(A)[sp].[moe]([m5C])p.[moe](G)p.[moe](A)p.[moe]([m5C])[sp].[moe](A)}$$$$ (last 3' nucleoside missing) | 1 score 0-7 |
| RNA1{[moe](A)[sp].[moe](T)p.[moe]([m5C])p.[moe](G)p.[moe](A)p.d(T)[sp].d(T)[sp].d([m5C])[sp].d([m5C])[sp].d(T)[sp].d(T)[sp].d(T)[sp].d([m5C])[sp].d(T)[sp].d(G)[sp].[moe]([m5C])p.[moe](A)p.[moe](T)[sp].[moe]([m5C])}$$$$ (last 3' nucleoside missing) | 1 score 0-7 |
| RNA1{[moe](A)[sp].[moe]([m5C])p.[moe](A)p.[moe](T)p.[moe](A)p.[moe](T)p.d(T)[sp].d(T)[sp].d(T)[sp].d(T)[sp].d([m5C])[sp].d(T)[sp].d(A)[sp].d([m5C])[sp].d(A)[sp].d([m5C])[sp].[moe](T)p.[moe](G)[sp].[moe]([m5C])}$$$$ (last 3' nucleoside missing) | 0 score 0-7 |
| RNA1{[moe](A)[sp].[moe]([m5C])p.[moe](A)p.[moe](T)p.[moe](A)p.d(T)[sp].d(T)[sp].d(T)[sp].d(T)[sp].d(T)[sp].d([m5C])[sp].d(T)[sp].d(A)[sp].d([m5C])[sp].d(A)[sp].[moe]([m5C])p.[moe](T)p.[moe](G)[sp].[moe]([m5C])}$$$$ (last 3' nucleoside missing) | 0 score 0-7 |
| RNA1{[moe](A)[sp].[moe]([m5C])p.[moe](A)p.[moe](T)p.d(A)[sp].d(T)[sp].d(T)[sp].d(T)[sp].d(T)[sp].d(T)[sp].d([m5C])[sp].d(T)[sp].d(A)[sp].d([m5C])[sp].[moe](A)p.[moe]([m5C])p.[moe](T)p.[moe](G)[sp].[moe]([m5C])}$$$$ (last 3' nucleoside missing) | 0.33 score 0-7 |
| RNA1{[moe](A)[sp].[moe]([m5C])p.[moe](G)p.[moe](A)p.[moe]([m5C])p.[moe](A)p.d(T)[sp].d(A)[sp].d(T)[sp].d(T)[sp].d(T)[sp].d(T)[sp].d(T)[sp].d([m5C])[sp].d(T)[sp].d(A)[sp].[moe]([m5C])p.[moe](A)[sp].[moe]([m5C])}$$$$ (last 3' nucleoside missing) | 0 score 0-7 |
| RNA1{[moe](A)[sp].[moe]([m5C])p.[moe](G)p.[moe](A)p.[moe]([m5C])p.d(A)[sp].d(T)[sp].d(A)[sp].d(T)[sp].d(T)[sp].d(T)[sp].d(T)[sp].d(T)[sp].d([m5C])[sp].d(T)[sp].[moe](A)p.[moe]([m5C])p.[moe](A)[sp].[moe]([m5C])}$$$$ (last 3' nucleoside missing) | 0 score 0-7 |
| RNA1{[moe](A)[sp].[moe]([m5C])p.[moe](G)p.[moe](A)p.d([m5C])[sp].d(A)[sp].d(T)[sp].d(A)[sp].d(T)[sp].d(T)[sp].d(T)[sp].d(T)[sp].d(T)[sp].d([m5C])[sp].[moe](T)p.[moe](A)p.[moe]([m5C])p.[moe](A)[sp].[moe]([m5C])}$$$$ (last 3' nucleoside missing) | 0 score 0-7 |
| RNA1{[moe](A)[sp].[moe]([m5C])p.[moe](T)p.[moe](G)p.[moe](G)p.d([m5C])[sp].d(T)[sp].d(A)[sp].d(T)[sp].d(A)[sp].d([m5C])[sp].d(T)[sp].d([m5C])[sp].d(A)[sp].d(T)[sp].[moe](T)p.[moe](G)p.[moe]([m5C])[sp].[moe](T)}$$$$ (last 3' nucleoside missing) | 1.33 score 0-7 |
| RNA1{[moe](A)[sp].[moe]([m5C])p.[moe]([m5C])p.[moe](A)p.[moe]([m5C])p.[moe](G)p.d([m5C])[sp].d(T)[sp].d(T)[sp].d(A)[sp].d([m5C])[sp].d(A)[sp].d(T)[sp].d([m5C])[sp].d(A)[sp].d(A)[sp].[moe](A)p.[moe]([m5C])[sp].[moe](A)}$$$$ (last 3' nucleoside missing) | 0 score 0-7 |
| RNA1{[moe](A)[sp].[moe]([m5C])p.[moe]([m5C])p.[moe](A)p.[moe]([m5C])p.d(G)[sp].d([m5C])[sp].d(T)[sp].d(T)[sp].d(A)[sp].d([m5C])[sp].d(A)[sp].d(T)[sp].d([m5C])[sp].d(A)[sp].[moe](A)p.[moe](A)p.[moe]([m5C])[sp].[moe](A)}$$$$ (last 3' nucleoside missing) | 0.33 score 0-7 |
| RNA1{[moe](A)[sp].[moe]([m5C])p.[moe]([m5C])p.[moe](A)p.d([m5C])[sp].d(G)[sp].d([m5C])[sp].d(T)[sp].d(T)[sp].d(A)[sp].d([m5C])[sp].d(A)[sp].d(T)[sp].d([m5C])[sp].[moe](A)p.[moe](A)p.[moe](A)p.[moe]([m5C])[sp].[moe](A)}$$$$ (last 3' nucleoside missing) | 0 score 0-7 |
| RNA1{[moe](A)[sp].[moe]([m5C])p.[moe]([m5C])p.[moe](G)p.[moe](A)p.[moe](A)p.d(T)[sp].d(T)[sp].d([m5C])[sp].d(T)[sp].d(A)[sp].d(T)[sp].d(T)[sp].d(T)[sp].d(T)[sp].d(A)[sp].[moe](T)p.[moe](A)[sp].[moe](A)}$$$$ (last 3' nucleoside missing) | 1.67 score 0-7 |
| RNA1{[moe](A)[sp].[moe]([m5C])p.[moe]([m5C])p.[moe](G)p.[moe](A)p.d(A)[sp].d(T)[sp].d(T)[sp].d([m5C])[sp].d(T)[sp].d(A)[sp].d(T)[sp].d(T)[sp].d(T)[sp].d(T)[sp].[moe](A)p.[moe](T)p.[moe](A)[sp].[moe](A)}$$$$ (last 3' nucleoside missing) | 1.67 score 0-7 |
| RNA1{[moe](A)[sp].[moe]([m5C])p.[moe]([m5C])p.[moe](G)p.[moe](T)p.d([m5C])[sp].d(T)[sp].d([m5C])[sp].d(T)[sp].d(T)[sp].d(T)[sp].d([m5C])[sp].d(T)[sp].d(T)[sp].d(A)[sp].[moe](T)p.[moe](T)p.[moe](T)[sp].[moe]([m5C])}$$$$ (last 3' nucleoside missing) | 7 score 0-7 |
